{
  "source": "patent US9789058B2",
  "about": "“Ophthalmic composition for the treatment of ocular infection” (CooperVision International Holding Company, LP, priority 2014, dated 2017)",
  "key": {"[1]": {"test_system": "methicillin-susceptible S. aureus (MSSA)", "assay": "Broth microdilution susceptibility (MIC), MSSA isolates", "assay_type": "cell-based, Staphylococus aureus", "settings": "N=25 isolates", "protocol": "(§1) The MIC50 and MIC90 of εPL against methicillin-sensitive Staphylococus aureus) and MRSA were determined in these studies. (The “Minimum”, “Maximum”, and MIC50 and MIC90 in the Table are provided in units of μg/ml.) Other antimicrobial agents such as tobramycin, moxifloxacin, and PHMB (polyhexamethylene biguanid) were included for comparison. Broth microdilution tests were performed in accordance with the Clinical and Laboratory Standards Institute (CLSI) (M07-A9, Vol. 32 No. 2, January, 2012) for aerobic and facultative anaerobic strains. Cation-adjusted Mueller-Hinton broth was used for testing staphylococci species."}, "[2]": {"test_system": "methicillin-resistant S. aureus (MRSA)", "assay": "Broth microdilution susceptibility (MIC), MRSA isolates", "assay_type": "cell-based, Staphylococus aureus", "settings": "for MIC / MIC50 / MIC90 / Maximum (MIC) / Minimum (MIC): MRSA, N=25 isolates", "protocol": "as §1"}, "MRSA strain K-950": {"test_system": "MRSA strain K-950", "assay": "Time-kill study (bactericidal activity)", "assay_type": "cell-based, Staphylococus aureus", "settings": "for decrease of MRSA colony counts: 8 hours post-inoculation", "protocol": "The bactericidal activity of εPL against MRSA strain K-950 was evaluated. […] Test tubes containing 0.5 mL of εPL at 0.25 μg/mL, 1.0 μg/mL, 4.0 μg/mL or 16.0 μg/mL εPL in Mueller Hinton broth growth media and approximately 10^6 CFU/mL of K-950 were incubated at 37° C. After 1, 2, 4, 6, 8 and 24 hours of incubation, the test tubes were removed and colony forming units were calculated. To calculate CFU, 100 μL of the medium was removed from a tube and serially diluted (1:10 dilutions) in the medium. Aliquots of 100 μL of each dilution were plated, in duplicate, onto TSA agar plates containing 5% sheep's blood. The plates were incubated at 37° C. overnight and the colonies were counted the next day."}, "[3]": {"assay": "Ocular toxicity study in rabbits", "assay_type": "in vivo", "protocol": "Rabbits were divided into three treatment groups, each was treated with increasing concentrations of εPL (50, 150, and 500 μg/mL) in phosphate buffered saline (PBS) at pH 7.3. Specifically, rabbits from each group were dosed with a drop of εPL solution in the left eye of a rabbit eight times during a seven-hour period. The right eye was dosed with PBS. Macroscopic examinations were performed prior to the first dose, and 10 minutes following each dose. Slit lamp microscopic examinations were performed prior to the first dose and at termination. Ocular tissues were collected at termination and submitted for histological evaluation.\nDuring the dosing period, there were some sporadic occurrences of conjunctival discharge as observed by macroscopic examination. However, they were equally divided between εePL-treated and PBS-treated eyes."}, "[4]": {"settings": "Staphylococcus aureus, cation-adjusted Mueller-Hinton broth, read-out: Minimum (MIC)"}, "[5]": {"settings": "Staphylococcus aureus, read-out: MIC50"}, "[6]": {"settings": "Staphylococcus aureus, read-out: MIC90"}, "[7]": {"settings": "Staphylococcus aureus, read-out: Maximum (MIC)"}, "[8]": {"settings": "cation-adjusted Mueller-Hinton broth"}},
  "note": "Like-named read-outs stand apart in the source and are kept apart here.",
  "data": [
    {"compound": "NC[C@H]1O[C@H](O[C@H]2[C@H](O)[C@@H](O[C@H]3O[C@H](CO)[C@@H](O)[C@H](N)[C@H]3O)[C@H](N)C[C@@H]2N)[C@H](N)C[C@@H]1O", "note": "[Tobramycin, tobramycin]", "values": [
      {"measurement": "MIC", "setting": "[1]; [4]", "value": 0.12, "unit": "µg/mL"},
      {"measurement": "MIC50", "setting": "[1]; [5]", "value": 0.25, "unit": "µg/mL"},
      {"measurement": "MIC90", "setting": "[1]; [6]", "value": 1, "unit": "µg/mL"},
      {"measurement": "MIC", "setting": "[1]; [7]", "value": 1, "unit": "µg/mL"},
      {"measurement": "MIC", "setting": "[2]; [4]", "value": 0.12, "unit": "µg/mL"},
      {"measurement": "MIC50", "setting": "[2]; [5]", "value": 0.5, "unit": "µg/mL"},
      {"measurement": "MIC90", "setting": "[2]; [6]", "value": 64, "unit": "µg/mL"},
      {"measurement": "MIC", "setting": "[2]; [7]", "value": 64, "unit": "µg/mL"}
    ]},
    {"compound": "ε-polylysine [εPL]", "values": [
      {"measurement": "MIC50", "setting": "[1]", "value": 8, "unit": "µg/mL"},
      {"measurement": "MIC90", "setting": "[1]", "value": 8, "unit": "µg/mL"},
      {"measurement": "Maximum (MIC)", "setting": "[1]", "value": 8, "unit": "µg/mL"},
      {"measurement": "Minimum (MIC)", "setting": "[1]; [8]", "value": 4, "unit": "µg/mL"},
      {"measurement": "MIC50", "setting": "[2]", "value": 4, "unit": "µg/mL"},
      {"measurement": "MIC90", "setting": "[2]", "value": 8, "unit": "µg/mL"},
      {"measurement": "Maximum (MIC)", "setting": "[2]", "value": 8, "unit": "µg/mL"},
      {"measurement": "Minimum (MIC)", "setting": "[2]; [8]", "value": 4, "unit": "µg/mL"},
      {"measurement": "MICs range", "setting": "[2]; all 50 isolates tested (MSSA and MRSA)", "value": "4 to 8", "unit": "µg/mL"},
      {"measurement": "effect on the colony counts", "setting": "MRSA strain K-950", "value": "no effect"},
      {"measurement": "Colony Counts", "setting": "MRSA strain K-950; 0.25X MIC (1 μg/ml), 0 Hours", "value": "4.65 × 10^5 CFU/ml"},
      {"measurement": "Colony Counts", "setting": "MRSA strain K-950; 0.25X MIC (1 μg/ml), 1 Hour", "value": "3.90 × 10^5 CFU/ml"},
      {"measurement": "Colony Counts", "setting": "MRSA strain K-950; 0.25X MIC (1 μg/ml), 2 Hours", "value": "9.75 × 10^5 CFU/ml"},
      {"measurement": "Colony Counts", "setting": "MRSA strain K-950; 0.25X MIC (1 μg/ml), 4 Hours", "value": "2.95 × 10^7 CFU/ml"},
      {"measurement": "Colony Counts", "setting": "MRSA strain K-950; 0.25X MIC (1 μg/ml), 6 Hours", "value": "5.90 × 10^6 CFU/ml"},
      {"measurement": "Colony Counts", "setting": "MRSA strain K-950; 0.25X MIC (1 μg/ml), 8 Hours", "value": "1.19 × 10^7 CFU/ml"},
      {"measurement": "Colony Counts", "setting": "MRSA strain K-950; 0.25X MIC (1 μg/ml), 24 Hours", "value": "1.19 × 10^8 CFU/ml"},
      {"measurement": "Colony Counts", "setting": "MRSA strain K-950; 1X MIC (4 μg/ml), 4 Hours", "value": "6.30 × 10^4 CFU/ml"},
      {"measurement": "Colony Counts", "setting": "MRSA strain K-950; 4X MIC (16 μg/ml), 0 Hours", "value": "4.55 × 10^5 CFU/ml"},
      {"measurement": "Colony Counts", "setting": "MRSA strain K-950; 4X MIC (16 μg/ml), 1 Hour", "value": "4.25 × 10^5 CFU/ml"},
      {"measurement": "Colony Counts", "setting": "MRSA strain K-950; 4X MIC (16 μg/ml), 2 Hours", "value": "8.45 × 10^4 CFU/ml"},
      {"measurement": "Colony Counts", "setting": "MRSA strain K-950; 4X MIC (16 μg/ml), 4 Hours", "value": "1.92 × 10^3 CFU/ml"},
      {"measurement": "Colony Counts", "setting": "MRSA strain K-950; 4X MIC (16 μg/ml), 6 Hours", "value": "2.10 × 10^2 CFU/ml"},
      {"measurement": "Colony Counts", "setting": "MRSA strain K-950; 4X MIC (16 μg/ml), 8 Hours", "value": "3.00 × 10^1 CFU/ml"},
      {"measurement": "Colony Counts", "setting": "MRSA strain K-950; 4X MIC (16 μg/ml), 24 Hours", "value": "7.10 × 10^3 CFU/ml"},
      {"measurement": "decrease of MRSA colony counts", "setting": "MRSA strain K-950; 4 times the MIC (16.0 μg/ml)", "value": "more than 3 logs"},
      {"measurement": "MIC of the tested strain", "setting": "MRSA strain K-950; MRSA strain K-950", "value": 4.0, "unit": "µg/mL"},
      {"measurement": "decrease of MRSA colony counts", "setting": "MRSA strain K-950; at MIC", "value": 2.4, "unit": "Log"},
      {"measurement": "action against MRSA", "setting": "MRSA strain K-950; time-kill study, MRSA K-950", "value": "bactericidal"},
      {"measurement": "slit lamp microscopic examination and histologic findings", "setting": "[3]; rabbits, 50, 150 and 500 μg/mL, eight doses in seven hours", "value": "did not reveal any abnormality"},
      {"measurement": "ocular tolerability", "setting": "[3]; rabbits, one drop in the eye eight times during a seven-hour period, concentrations up to 500 μg/mL in PBS pH 7.3", "value": "well tolerated"}
    ]},
    {"compound": "COc1c(N2C[C@@H]3CCCN[C@@H]3C2)c(F)cc2c(=O)c(C(=O)O)cn(C3CC3)c12", "note": "[Moxifloxacin, moxifloxacin]", "values": [
      {"measurement": "MIC", "setting": "[1]; [4]", "value": 0.03, "unit": "µg/mL"},
      {"measurement": "MIC50", "setting": "[1]; [5]", "value": 0.06, "unit": "µg/mL"},
      {"measurement": "MIC90", "setting": "[1]; [6]", "value": 1, "unit": "µg/mL"},
      {"measurement": "MIC", "setting": "[1]; [7]", "value": 1, "unit": "µg/mL"},
      {"measurement": "MIC", "setting": "[2]; [4]", "value": 0.03, "unit": "µg/mL"},
      {"measurement": "MIC50", "setting": "[2]; [5]", "value": 1, "unit": "µg/mL"},
      {"measurement": "MIC90", "setting": "[2]; [6]", "value": 4, "unit": "µg/mL"},
      {"measurement": "MIC", "setting": "[2]; [7]", "value": 8, "unit": "µg/mL"}
    ]},
    {"compound": "polyhexamethylene biguanid [PHMB]", "values": [
      {"measurement": "MIC50", "setting": "[1]", "value": 2, "unit": "µg/mL"},
      {"measurement": "MIC90", "setting": "[1]", "value": 2, "unit": "µg/mL"},
      {"measurement": "Maximum (MIC)", "setting": "[1]", "value": 2, "unit": "µg/mL"},
      {"measurement": "Minimum (MIC)", "setting": "[1]; [8]", "value": 1, "unit": "µg/mL"},
      {"measurement": "MIC50", "setting": "[2]", "value": 2, "unit": "µg/mL"},
      {"measurement": "MIC90", "setting": "[2]", "value": 2, "unit": "µg/mL"},
      {"measurement": "Maximum (MIC)", "setting": "[2]", "value": 4, "unit": "µg/mL"},
      {"measurement": "Minimum (MIC)", "setting": "[2]; [8]", "value": 1, "unit": "µg/mL"}
    ]}
  ]
}
